Laboratory results from US20220370416A1, “COMPOUNDS AND METHODS FOR TARGETED DEGRADATION OF KRAS” (Arvinas Operations, Inc., priority 2020, published 2022).
Like-named read-outs stand apart in the source and are kept apart here.

Assays:
pErk [1] = assay: Erk signaling (pErk, total Erk) by immunoblot in SW1573 cells; format: cell-based; conditions: SW1573, 2.5 μM
Experimental: (§1) Signaling kinetics were monitored during a 24 hour time course in MIA PaCa2, NCI-H23, and SW1573 cells treated with 2.5 μM LC-2. Modulation of Erk signaling by both MRTX and LC-2 occurs within 6 hours in MIA PaCa-2 and NCI-H23 cells (FIGS. 10A, 10B, and 11). pErk was suppressed by both compounds at 6 and 24 hours in each cell lines. […] Total Erk was increased in LC-2 treated cells compared to DMSO at all time points indicating the initiation of a positive feedback loop upon KRAS^G12C degradation and pErk inhibition.
(§2) NCI-H2030 (CRL-5914), MIA PaCa-2 (CRL-1420), NCI-H23 (CRL-5800), NCI-H358 (CRL-5807), and HCT-116 (CCL-247) cells were obtained from ATCC, expanded immediately, and frozen down. Vials were thawed and used within 20 passages. SW1573 cells were a gift from Arvinas and were handled in the same manner. NCI-H2030, NCI-H23, and NCI-H358 were cultured in RPMI (ATCC30-2001) supplemented with 10% FBS (Biological Industries; cat. no. S1480) and 1% Penicillin-Streptomycin (ThermoFisher; cat. no. 15140122). HCT-116 cells were maintained in high glucose DMEM (ThermoFisher; cat. no. 11965084) supplemented as above. MIA PaCa-2 cells were cultured in high glucose DMEM supplemented with 10% FBS, 2.5% horse serum (ThermoFisher; cat. no. 26050-088; lot 2109875), and 1% Penicillin-Streptomycin. SW1573 cells were maintained in DMEM/F12 Nutrient Mix with GlutaMAX supplement (ThermoFisher; cat. no. 10565018) with 10% FBS and 1% Penicillin-Streptomycin added. DPBS (ThermoFisher; cat. no. 14190250) was used to wash cells and 0.25% Trypsin-EDTA (ThermoFisher; cat. no. […]) was used to detach cells for passaging. […] The VHL ligand was generously provided by Arvinas. […]
(§3) Cell lysates were clarified at 21000×g for 15 mins at 4° C. Protein levels were quantified using a 50:1 mixture of bicinchoninic acid solution (Millipore Sigma; cat. no. B9643) and 4% (w/v) copper(II) sulfate solution (Millipore Sigma; cat. no. C2284) incubated at 37° C. for 30 mins. Absorbance values at 560 nm were read on an EnVision 2101 Multilabel Reader (PerkinElmer). […]

[2] = as above; format: cell-based; conditions: SW1573, 2.5 μM, all time points
Experimental: as §1, §2, §3

pErk [3] = assay: Erk signaling (pErk) during a 24 hour treatment in SW1573 cells; format: cell-based; conditions: 24 hour treatment time course (FIG. 11)
pErk [4] = conditions: MIA PaCa-2, 2.5 μM LC-2, 6 and 24 hours
Experimental: Between 2.5×10^5 and 6.0×10^5 cells were seeded into 6-well plates (Corning; cat. no. 353046). The next day, media was removed and cells were treated with 2.5 μM LC-2 for 1, 2, 4, 8, 12, or 24 hours. […] For 24-hour time course experiments, cells were treated at the indicated times and concurrently lysed in RIPA buffer supplemented as described previously. For longer time course experiments and time courses in which cells were treated with LC-2 or LC-2 Epimer, cells were concurrently treated with either compound, then lysed by scraping in RIPA buffer at the indicated time points.
Cell lysates were clarified at 21000×g for 15 mins at 4° C. Protein levels were quantified using a 50:1 mixture of bicinchoninic acid solution (Millipore Sigma; cat. no. B9643) and 4% (w/v) copper(II) sulfate solution (Millipore Sigma; cat. no. C2284) incubated at 37° C. for 30 mins. Absorbance values at 560 nm were read on an EnVision 2101 Multilabel Reader (PerkinElmer). Proteins were separated using 26 well Criterion TGX precast 4-15% (cat. no. 5671085) or 8-16% (cat. no. 5671105) gradient midi gels. After separation, proteins were transferred to nitrocellulose or PVDF membranes at 76 V for 2 hours at 4° C. Blots were then blocked in 5% milk in tris-buffered saline with Tween-20 (TBST; 20 mM Tris, 150 mM NaCl, 0.02% Tween-20). […]

pErk [5] = tested on: pErk
Experimental: The ability of LC-2 to modulate Erk signaling was investigated in NCI-H2030 and NCI-H23 cells during a 24 hour dose response.
NCI-H2030 (CRL-5914), MIA PaCa-2 (CRL-1420), NCI-H23 (CRL-5800), NCI-H358 (CRL-5807), and HCT-116 (CCL-247) cells were obtained from ATCC, expanded immediately, and frozen down. Vials were thawed and used within 20 passages. SW1573 cells were a gift from Arvinas and were handled in the same manner. NCI-H2030, NCI-H23, and NCI-H358 were cultured in RPMI (ATCC30-2001) supplemented with 10% FBS (Biological Industries; cat. no. S1480) and 1% Penicillin-Streptomycin (ThermoFisher; cat. no. 15140122). HCT-116 cells were maintained in high glucose DMEM (ThermoFisher; cat. no. 11965084) supplemented as above. MIA PaCa-2 cells were cultured in high glucose DMEM supplemented with 10% FBS, 2.5% horse serum (ThermoFisher; cat. no. 26050-088; lot 2109875), and 1% Penicillin-Streptomycin. SW1573 cells were maintained in DMEM/F12 Nutrient Mix with GlutaMAX supplement (ThermoFisher; cat. no. 10565018) with 10% FBS and 1% Penicillin-Streptomycin added. DPBS (ThermoFisher; cat. no. 14190250) was used to wash cells and 0.25% Trypsin-EDTA (ThermoFisher; cat. no. 252000-056) was used to detach cells for passaging. […] The VHL ligand was generously provided by Arvinas.
Between 2.5×10^5 and 6.0×10^5 cells were seeded into 6-well plates (Corning; cat. no. 353046). The next day, media was removed and cells were treated with 2.5 μM LC-2 for 1, 2, 4, 8, 12, or 24 hours. […]

Compound: C=C(F)C(=O)N1CCN(c2nc(OC[C@@H]3CCCN3CCCOCCC(=O)N[C@H](C(=O)N3C[C@H](O)C[C@H]3C(=O)NCc3ccc(-c4scnc4C)cc3)C(C)(C)C)nc3c2CCN(c2cccc4cccc(Cl)c24)C3)C[C@@H]1CC#N [LC-2, (2S,4R)-1-((S)-2-(3-(3-((S)-2-(((7-(8-chloronaphthalen-1-yl)-4-((S)-3-(cyanomethyl)-4-(2-fluoroacryloyl)piperazin-1-yl)-5,6,7,8-tetrahydropyrido[3,4-d]pyrimidin-2-yl)oxy)methyl)pyrrolidin-1-yl)propoxy)propanamido)-3,3-dimethylbutanoyl)-4-hydroxy-N-(4-(4-methylthiazol-5-yl)benzyl)pyrrolidine-2-carboxamide]
- phosphorylated Erk over time (pErk [1]; 24 hour time course): inhibited by 2.5 μM LC-2 between 1 and 4 hours, however pErk levels rebounded between 8 and 24 hours
- pErk levels versus DMSO (pErk [1]; 24 hours): significantly lower
- total Erk versus DMSO [2]: increased
- pErk (Erk signaling) (pErk [3]): pErk is decreased throughout the time course
- pErk (pErk [4]): suppressed
- pErk (pErk [5]; NCI-H23, 2.5 μM LC-2, 6 and 24 hours): suppressed
- pErk signaling (pErk [5]; NCI-H23, 24 hour dose response): dose-dependent decrease in pErk
- total Erk levels (pErk [5]; NCI-H23, 24 hour dose response): elevated in a dose-dependent manner
